The source of these data is BindingDB's records for doi:10.1021/jm0100537 (Glaxosmithkline, 2001).

Common to all, as to test: Caspase Inhibition Assay
For experiment [1], the target named is T1, Caspase-3 (Homo sapiens, UniProt P42574).
T1 sequence (P42574 whole entry): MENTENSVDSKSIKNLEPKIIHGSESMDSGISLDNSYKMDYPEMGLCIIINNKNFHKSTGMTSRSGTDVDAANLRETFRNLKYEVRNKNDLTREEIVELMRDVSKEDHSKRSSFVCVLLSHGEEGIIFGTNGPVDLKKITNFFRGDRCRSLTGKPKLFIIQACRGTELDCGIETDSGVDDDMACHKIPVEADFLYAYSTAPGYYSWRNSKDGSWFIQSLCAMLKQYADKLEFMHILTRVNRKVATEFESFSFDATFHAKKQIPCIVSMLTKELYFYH

Experiment [2] has as its target T2, Caspase-7 (Homo sapiens, UniProt P55210).
T2 sequence (P55210 whole entry): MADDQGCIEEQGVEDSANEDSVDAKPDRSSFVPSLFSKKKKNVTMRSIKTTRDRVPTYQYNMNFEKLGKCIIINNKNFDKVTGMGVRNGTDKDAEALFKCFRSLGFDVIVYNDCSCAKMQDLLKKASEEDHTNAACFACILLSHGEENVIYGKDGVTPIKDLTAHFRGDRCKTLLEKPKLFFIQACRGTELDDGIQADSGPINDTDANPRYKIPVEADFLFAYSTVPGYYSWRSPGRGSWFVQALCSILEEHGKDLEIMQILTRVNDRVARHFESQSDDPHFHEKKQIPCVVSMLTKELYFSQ

The target in experiment [3] is T3, Caspase-6 (Homo sapiens, UniProt P55212).
T3 sequence (P55212 whole entry): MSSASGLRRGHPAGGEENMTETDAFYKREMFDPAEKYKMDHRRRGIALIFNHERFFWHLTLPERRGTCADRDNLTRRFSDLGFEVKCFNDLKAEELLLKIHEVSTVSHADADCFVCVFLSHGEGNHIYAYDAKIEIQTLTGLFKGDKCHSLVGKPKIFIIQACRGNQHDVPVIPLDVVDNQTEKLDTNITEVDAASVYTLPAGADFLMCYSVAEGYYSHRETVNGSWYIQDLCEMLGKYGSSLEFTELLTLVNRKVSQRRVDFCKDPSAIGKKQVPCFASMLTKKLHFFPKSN

Experiment [4] concerns the target Caspase-8 (Homo sapiens, UniProt Q14790).
In experiment [5] the target is T4, Caspase-9 (Homo sapiens, UniProt P55211).
T4 sequence (P55211 whole entry): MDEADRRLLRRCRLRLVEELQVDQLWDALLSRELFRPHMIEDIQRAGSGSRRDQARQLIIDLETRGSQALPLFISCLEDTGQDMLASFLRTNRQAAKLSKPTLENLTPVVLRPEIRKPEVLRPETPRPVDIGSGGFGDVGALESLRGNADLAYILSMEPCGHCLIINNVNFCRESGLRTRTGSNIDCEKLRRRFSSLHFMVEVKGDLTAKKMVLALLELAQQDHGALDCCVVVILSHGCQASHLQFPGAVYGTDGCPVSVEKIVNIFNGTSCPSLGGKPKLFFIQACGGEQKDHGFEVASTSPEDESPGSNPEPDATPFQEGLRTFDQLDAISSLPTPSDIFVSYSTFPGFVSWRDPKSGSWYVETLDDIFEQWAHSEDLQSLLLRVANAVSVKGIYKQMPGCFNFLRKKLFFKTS

Experiment [6] deals with T5, Caspase-4 (Homo sapiens, UniProt P49662).
T5 sequence (P49662 whole entry): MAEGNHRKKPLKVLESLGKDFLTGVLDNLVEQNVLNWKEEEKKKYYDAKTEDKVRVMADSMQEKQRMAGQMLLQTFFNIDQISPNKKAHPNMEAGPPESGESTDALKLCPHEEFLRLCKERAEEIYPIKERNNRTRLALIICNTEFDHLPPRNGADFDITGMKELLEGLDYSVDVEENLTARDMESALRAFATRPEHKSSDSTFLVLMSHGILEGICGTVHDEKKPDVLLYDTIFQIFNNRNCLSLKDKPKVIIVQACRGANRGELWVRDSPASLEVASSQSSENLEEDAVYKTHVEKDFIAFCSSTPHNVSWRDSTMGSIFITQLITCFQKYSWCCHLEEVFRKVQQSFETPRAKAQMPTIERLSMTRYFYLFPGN

The target of experiment [7] is T6, Caspase-2 (Homo sapiens, UniProt P42575).
T6 sequence (P42575 whole entry): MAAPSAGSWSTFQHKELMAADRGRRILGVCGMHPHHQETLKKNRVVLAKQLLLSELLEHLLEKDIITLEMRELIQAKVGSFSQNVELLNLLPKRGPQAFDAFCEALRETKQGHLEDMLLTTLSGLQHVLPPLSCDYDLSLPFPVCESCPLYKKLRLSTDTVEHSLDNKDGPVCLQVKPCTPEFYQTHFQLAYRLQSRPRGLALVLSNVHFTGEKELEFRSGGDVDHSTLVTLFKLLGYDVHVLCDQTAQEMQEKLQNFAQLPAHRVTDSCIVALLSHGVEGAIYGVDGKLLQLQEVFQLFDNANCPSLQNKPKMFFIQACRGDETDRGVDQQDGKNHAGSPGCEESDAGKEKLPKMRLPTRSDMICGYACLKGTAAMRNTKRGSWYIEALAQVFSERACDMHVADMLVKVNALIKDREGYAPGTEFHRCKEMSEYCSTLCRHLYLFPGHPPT

Experiment [8] deals with T7, Caspase-1 (Homo sapiens, UniProt P29466).
T7 sequence (P29466 whole entry): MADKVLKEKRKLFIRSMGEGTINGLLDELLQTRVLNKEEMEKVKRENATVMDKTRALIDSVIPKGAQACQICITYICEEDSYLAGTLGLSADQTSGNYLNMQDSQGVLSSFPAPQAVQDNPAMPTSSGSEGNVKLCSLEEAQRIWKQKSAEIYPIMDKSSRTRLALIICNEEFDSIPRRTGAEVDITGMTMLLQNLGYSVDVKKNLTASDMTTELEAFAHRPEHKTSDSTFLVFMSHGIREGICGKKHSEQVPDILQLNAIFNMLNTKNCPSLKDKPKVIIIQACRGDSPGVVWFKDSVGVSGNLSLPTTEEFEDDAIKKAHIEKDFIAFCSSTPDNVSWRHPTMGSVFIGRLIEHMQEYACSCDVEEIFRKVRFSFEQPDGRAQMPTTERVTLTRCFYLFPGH

Chain of Caspase-8 (Q14790 217-374 limits assumed): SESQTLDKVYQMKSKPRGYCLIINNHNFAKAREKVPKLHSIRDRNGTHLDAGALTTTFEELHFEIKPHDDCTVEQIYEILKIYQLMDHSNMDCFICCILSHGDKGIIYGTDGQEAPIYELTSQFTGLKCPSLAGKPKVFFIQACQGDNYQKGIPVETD
Chain of Caspase-8 (Q14790 385-479 limits assumed): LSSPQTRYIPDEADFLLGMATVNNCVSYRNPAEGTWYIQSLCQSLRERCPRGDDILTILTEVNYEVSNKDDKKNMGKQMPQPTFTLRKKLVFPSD

Regarding `O=C1Nc2ccc([N+](=O)[O-])cc2C1=O` [5-nitro-2,3-dihydro-1H-indole-2,3-dione], the IC50 (as a rule, the concentration that inhibits the measured activity by half) in experiment [1] (pH 7.5, 30 °C) was found to be 3 µM.

In the case of `O=C1Nc2ccc(S(=O)(=O)N3CCC[C@@H]3CNc3ccccc3)cc2C1=O` [5-{[(2R)-2-[(phenylamino)methyl]pyrrolidine-1-]sulfonyl}-2,3-dihydro-1H-indole-2,3-dione], the Ki – broadly, the equilibrium dissociation constant of an inhibitor or competing ligand from its target – is 10 µM in experiment [2]; 57 µM in experiment [3]; more than 50 µM in experiment [4]; more than 50 µM in experiment [5]; more than 50 µM in experiment [6]; 11 µM in experiment [7]. In addition, the results for the Ki in experiment [8] and in experiment [1] were more than 50 µM and 12 µM, respectively. For the same molecule, the IC50 in experiment [1] stood at 5.5 µM.

Molecule `O=C1Nc2ccc(S(=O)(=O)N3CCC[C@H]3C(=O)Nc3ccccc3)cc2C1=O` [(2S)-1-[(2,3-dioxo-2,3-dihydro-1H-indole-5-)sulfonyl]-N-phenylpyrrolidine-2-carboxamide] registered a half-inhibitory concentration (IC50) in experiment [1] of 0.14 µM.

`CN1C(=O)C(=O)c2cc(S(=O)(=O)N3CCC[C@H]3COc3ccccc3)ccc21` [(S)-1-Methyl-5-{1-[2-(phenoxymethyl)pyrrolidinyl]sulfonyl}isatin]: it took 0.03 µM to reach half-maximal inhibition in experiment [1] (IC50).
